The values that follow come from US5691373A, “Nonpeptide endothelin antagonists I” (Warner-Lambert Company, priority 1995, dated 1997).

The IC50 is the midpoint of a concentration-inhibition curve.

Where a name gives a salt, the structure may show the parent alone. Read-outs that look alike come from different tables or passages of the source.

The target in test [1] is T1, ETA (Oryctolagus cuniculus, UniProt A5A8K3).
T1 sequence (A5A8K3 21-427): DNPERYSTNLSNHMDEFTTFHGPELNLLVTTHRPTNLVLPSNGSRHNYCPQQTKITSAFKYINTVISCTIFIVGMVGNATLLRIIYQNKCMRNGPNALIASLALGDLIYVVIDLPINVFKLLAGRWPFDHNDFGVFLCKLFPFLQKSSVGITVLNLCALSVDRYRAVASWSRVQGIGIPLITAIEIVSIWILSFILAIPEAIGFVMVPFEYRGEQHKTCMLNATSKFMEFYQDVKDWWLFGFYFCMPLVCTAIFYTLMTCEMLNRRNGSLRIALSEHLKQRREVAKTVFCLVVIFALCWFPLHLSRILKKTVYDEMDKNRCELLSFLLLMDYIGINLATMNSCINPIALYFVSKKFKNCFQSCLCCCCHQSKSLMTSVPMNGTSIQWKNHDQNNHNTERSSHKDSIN

In test [2] the target is T2, human ETB receptor (Homo sapiens, UniProt P24530).
T2 construct: expressed in transfected cells; host or cells: CHO-K1 cells, pRc-CMW (so in the source) expression vector, electroporation; membranes used
T2 sequence (P24530 27-442): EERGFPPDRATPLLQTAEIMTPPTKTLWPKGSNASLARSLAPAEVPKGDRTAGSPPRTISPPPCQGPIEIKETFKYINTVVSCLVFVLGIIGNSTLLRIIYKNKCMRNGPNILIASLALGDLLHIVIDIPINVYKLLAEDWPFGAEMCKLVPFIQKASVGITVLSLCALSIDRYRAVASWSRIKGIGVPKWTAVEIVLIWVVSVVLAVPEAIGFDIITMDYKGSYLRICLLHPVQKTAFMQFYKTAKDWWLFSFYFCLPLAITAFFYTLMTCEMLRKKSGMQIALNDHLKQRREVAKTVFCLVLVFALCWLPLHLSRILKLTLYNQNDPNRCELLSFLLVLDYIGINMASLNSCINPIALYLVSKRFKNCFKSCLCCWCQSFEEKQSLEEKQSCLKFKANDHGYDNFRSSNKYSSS
Nature of the test: ERBA-B: [125I]-ET-1 binding, recombinant human ETB receptor expressed in CHO-K1 cells. The following applies: human cloned ETB receptor, read-out: ERBA-B IC50, human cloned receptor data. On the procedure:
Count filters for radioactivity in gamma counter.
The above process has also been modified by using human recombinant CHO-K1 cells.
The tissue used for human ETB was recombinant human ETB receptor expressed in CHO-K1 cells (chinese hamster ovary cells). The gene for human ETB receptor was cloned and inserted into the pRc-CMW expression vector, then transfected into CHO-K1 cells by electroporation. For binding assays, membranes (0.7 mg protein) of CHO-K1 cells expressing recombinant human ETB receptor were used.
^d Human cloned receptor data

The mark [3] stands for this setting: ERBA-A IC50, [125I]-ET-1, rabbit renal artery vascular smooth muscle cells.
The mark [4] stands for this setting: read-out: ERBA-A IC50, [125I]-ET-1, rabbit renal artery vascular smooth muscle cells.

For `COc1ccc(C(=O)/C(Cc2ccccc2)=C(\C(=O)O)c2cc(OC)c3c(c2)OCO3)cc1C` [Example 370, Sodium 3-Benzyl-2-(7-methoxy-benzo[1,3]dioxol-5-yl)-4-(4-methoxy-3-methyl-phenyl)-4-oxo-but-2-enoate], the IC50 in test [1] (setting [3]) stood at 10 nM; in test [2] it was 1530 nM.
For `COc1ccc(C2(O)OC(=O)C(c3ccc4c(c3)OCO4)=C2Cc2cc(C)c(OC(C)C)c(C)c2)cc1` (stereo not drawn) [Example 297, 3-Benzo[1,3]dioxol-5-yl-4-(3,5-dimethyl-4-isopropoxybenzyl)-5-hydroxy-5-(4-methoxy-phenyl)-5H-furan-2-one] the same measures were 64 nM and 870 nM.
The matching figures for `O=C1OC(O)(c2cccc(Cl)c2)C(Cc2ccccc2)=C1c1ccc2c(c1)OCO2` (stereo not drawn) [Example 235, 3-Benzo[1,3]dioxol-5-yl-4-benzyl-5-(3-chlorophenyl)-5-hydroxy-5H-furan-2-one]: 670 nM and greater than 2500 nM.
As to `COc1ccc(C(=O)/C(Cc2ccc(OC)c(C)c2)=C(\C(=O)O)c2ccc3c(c2)OCO3)cc1` [Example 172, 2-Butenoic acid, 2-(1,3-benzodioxol-5-yl)-3-[(4-methoxy-3-methylphenyl)methyl]-4-(4-methoxyphenyl)-4-oxo-, (Z)-, ion(1-) compd. with 2-hydroxy-N,N,N-trimethylethanaminium (1:1)], the IC50 was 7200 nM in test [1] (setting [4]) and greater than 2500 nM in test [2].
As to `O=C1OC(O)(c2ccc(OCc3ccccc3)cc2)C(Cc2ccccc2)=C1c1ccc2c(c1)OCO2` (stereo not drawn) [Example 208, 3-Benzo[1,3]dioxol-5-yl-4-benzyl-5-(4-benzyloxyphenyl)-5-hydroxy-5H-furan-2-one], the IC50 came to 1200 nM in test [1] (setting [3]) and 5400 nM in test [2].
The matching figures for `COC(=O)c1cccc(CC2=C(c3ccc4c(c3)OCO4)C(=O)OC2(O)c2ccc(OC)cc2)c1` (stereo not drawn) [Example 286, Benzoic acid, 3-[[4-(1,3-benzodioxol-5-yl)-2,5-dihydro-2-hydroxy-2-(4-methoxyphenyl)-5-oxo-3-furanyl]methyl]-, methyl ester]: 4.6 nM and 6000 nM.
For the compound `COc1ccc(C2(O)OC(=O)C(c3ccc4c(c3)OCO4)=C2Cc2ccc(OC(C)C)c(C)c2)cc1C` (stereo not drawn) [Example 395, 3-Benzo[1,3]dioxol-5-yl-5-hydroxy-4-(4-isopropoxy-3-methyl-benzyl)-5-(4-methoxy-3-methyl-phenyl)-5H-furan-2-one], the IC50 in test [1] (setting [3]) turned out to be 13 nM; in test [2], 840 nM.
Regarding `CCC1=C(c2ccc3c(c2)OCO3)C(=O)OC1(O)c1ccc(OC)cc1` (stereo not drawn) [Example 91, 3-Benzo[1,3]dioxol-5-yl-4-ethyl-5-hydroxy-5-(4-methoxyphenyl)-5H-furan-2-on], the figures for the IC50 in test [1] (setting [3]) and in test [2] were 530 nM and 15000 nM, respectively.
The matching figures for `COc1ccc(C2(O)OC(=O)C(c3ccc4c(c3)OCO4)=C2Cc2ccc(C(C)C)cc2)cc1` (stereo not drawn) [Example 404, 3-Benzo[1,3]dioxol-5-yl-5-hydroxy-4-(4-isopropylbenzyl)-5-(4-methoxy-phenyl)-5H-furan-2-one]: 58 nM and greater than 2500 nM.
The matching figures for `COc1ccc(C2(O)OC(=O)C(c3ccc4c(c3)OCO4)=C2Cc2ccc(-c3ccccc3)cc2)cc1` (stereo not drawn) [Example 162, 3-Benzo[1,3]dioxol-5-yl-4-biphenyl-4-ylmethyl-5-hydroxy-5-(4-methoxyphenyl) -5H-furan-2-one]: 390 nM and 1900 nM.
Regarding `COc1ccc(C2(O)OC(=O)C(c3ccc4c(c3)OCO4)=C2CC2=CC[C@H]3C[C@@H]2C3(C)C)cc1` (stereo partly drawn) [Example 310, 3-Benzo[1,3]dioxol-5-yl-4-(6,6-dimethyl-bicyclo[3.1.1]-hept-2-en-2-ylmethyl)-5-hydroxy-5-(4-methoxy-phenyl)-5H-furan-2-one], the IC50 was determined as 540 nM in test [1] (setting [3]) and 8800 nM in test [2].
With `CCCCCCCCOc1c(C)cc(CC2=C(c3ccc4c(c3)OCO4)C(=O)OC2(O)c2ccc(OC)cc2)cc1C` (stereo not drawn) [Example 302, 3-Benzo[1,3]dioxol-5-yl-4-(3,5-dimethyl-4-octyloxybenzyl)-5-hydroxy-5-(4-methoxy-phenyl)-5H-furan-2-one], the 50% inhibitory concentration (IC50) in test [1] (setting [3]) amounted to 2300 nM; in test [2] it was 2000 nM.
For `C=CCOc1ccc(OC)cc1C1=C(Cc2ccccc2)C(O)(c2ccc(OC)cc2)OC1=O` (stereo not drawn) [Example 337, 3-(2-Allyloxy-5-methoxy-phenyl)-4-benzyl-5-hydroxy-5-(4-methoxy-phenyl)-5H-furan-2-one] the same measures were 2500 nM and greater than 25000 nM.
Consider `COc1ccc(C2(O)OC(=O)C(c3cc(OC)cc(OC)c3)=C2Cc2ccc(Cl)cc2)cc1` (stereo not drawn) [Example 274], for which the half-inhibitory concentration (IC50) in test [1] (setting [4]) was 140 nM; in test [2] it was greater than 2500 nM.
For `CCCCCCCCOc1ccc(CC2=C(c3cc(OC)cc(OC)c3)C(=O)OC2(O)c2ccc(OC)c(C)c2)cc1OC` (stereo not drawn) [Example 393, 3-(3,5-Dimethoxy-phenyl)-5-hydroxy-5-(4-methoxy-3-methyl-phenyl)-4-(3-methoxy-4-octyloxy-benzyl)-5H-furan-2-one], the IC50 was 240 nM in test [1] (setting [3]) and 830 nM in test [2].
For `C=CCOc1cc(CC2=C(c3ccc4c(c3)OCO4)C(=O)OC2(O)c2ccc(OC)cc2OC)ccc1OC` (stereo not drawn) [Example 255, 4-(3-Allyloxy-4-methoxybenzyl)-3-benzo[1,3]dioxol-5-yl-5-(2,4-dimethoxyphenyl)-5-hydroxy-5H-furan-2-one] the same measures were 8.3 nM and 1400 nM.
For `COc1ccc(C2(O)OC(=O)C(c3ccc4c(c3)OCO4)=C2Cc2cc(OC)cc(OC)c2)cc1` (stereo not drawn) [Example 303, 3-Benzo[1,3]dioxol-5-yl-4-(3,5-dimethoxy-benzyl)-5-hydroxy-5-(4-methoxy-phenyl)-5H-furan-2-one], the figures for the IC50 in test [1] (setting [3]) and in test [2] were 2.7 nM and 760 nM, respectively.
For `COc1ccc(C2(O)OC(=O)C(c3ccc4c(c3)OCO4)=C2Cc2ccc(OC3CCCCC3)c(C)c2)cc1` (stereo not drawn) [Example 397, 3-Benzo[1,3]dioxol-5-yl-4-(4-cyclohexyloxy-3-methylbenzyl)-5-hydroxy-5-(4-methoxy-phenyl)-5H-furan-2-one] the same measures were 610 nM and 2600 nM.
In the case of `COc1ccc(C(=O)/C(Cc2ccc(NC(C)=O)cc2)=C(\C(=O)O)c2ccc3c(c2)OCO3)cc1` [Example 366, Potassium 3-(4-Acetylamino-benzyl)-2-benzo[1,3]dioxol-5-yl-4-(4-methoxy-phenyl)-4-oxo-but-2-enoate], the half-maximal inhibitory concentration (IC50) amounted to 7.3 nM in test [1] (setting [3]) and 4900 nM in test [2].
For `COc1ccc(C2(O)OC(=O)C(c3cc(OC)cc(OC)c3)=C2Cc2cccc(C(=O)O)c2)cc1` (stereo not drawn) [Example 267, 3-[4-(3,5-Dimethoxyphenyl)-2-hydroxy-2-(4-methoxyphenyl)-5-oxo-2,5-dihydrof uran-3-ylmethyl]benzoic acid] the same measures were 710 nM and greater than 2500 nM.
Regarding `COc1ccc(C2(O)OC(=O)C(c3cc(OC)cc(OC)c3)=C2Cc2cccnc2)cc1` (racemic) [Example 166, 2(5H)-Furanone, 3-(3,5-dimethoxyphenyl)-5-hydroxy-5-(4-methoxyphenyl)-4-(3-pyridinylmethyl)-, (±)-, monohydrochloride], the half-maximal inhibitory concentration (IC50) in test [1] (setting [3]) was 40 nM; in test [2] it was greater than 2500 nM.
For `COc1ccc(C2(O)OC(=O)C(c3cc(OC)cc(OC)c3)=C2Cc2cc(Cl)cc(Cl)c2)cc1` (stereo not drawn) [Example 132, 4-(3,5-Dichlorobenzyl)-3-(3,5-dimethoxyphenyl)-5-hydroxy-5-(4-methoxyphenyl)-5H-furan-2-one] the same measures were 70 nM and 2750 nM.
With `COc1ccc(C2(O)OC(=O)C(c3ccc4c(c3)OCO4)=C2Cc2ccc(OC(C)C)c(OC)c2)cc1C` (stereo not drawn) [Example 391, 3-Benzo[1,3]dioxol-5-yl-5-hydroxy-4-(4-isopropoxy-3-methoxy-benzyl)-5-(4-methoxy-3-methyl-phenyl)-5H-furan-2-one], the results for the IC50 in test [1] (setting [3]) and in test [2] were 1.8 nM and greater than 250 nM, respectively.
For `COc1ccc(C2(O)OC(=O)C(c3ccc4c(c3)OCO4)=C2Cc2ccc(OCc3ccccc3)c(OC)c2)cc1` (stereo not drawn) [Example 309, 3-Benzo[1,3]dioxol-5-yl-4-(4-benzyloxy-3-methoxybenzyl)-5-hydroxy-5-(4-methoxy-phenyl)-5H-furan-2-one], the IC50 is 18 nM in test [1] (setting [3]) and 860 nM in test [2].
